No end group written: not given here.
Columns and labels:
[1] = tested on: GFP-expressing HHV-8 (rHHV-8.152); assay: HHV-8 infection assay in HCjE cells; format: cell-based, human herpesvirus-8; conditions: for GFP-expression of HHV-8 (RFU): 48 h, fluorescence reader (FIG. 5C); for fluorescence from GFP virus replication (microscopy): fluorescent microscope (FIG. 5D)
Description: HCjE cells grown in chamber slides (Labteck) or in a 96 well plate were pre-treated with G1, G2, or control peptides for 60 min at room temperature followed by inoculation with recombinant rHHV-8.152, expressing the green fluorescent protein (GFP). Viera et al., J. Virol. 72:5182-5188 (2000). 48-hr post-infection, GFP-positive cells were visualized under microscope (Zeiss Axioverst 100M). HHV-8 infection was determined as relative fluorescence units (RFU) using GENios Pro plate reader (TECAN) at 480-nm excitation and 520-nm emission frequencies. Five measurements of negative control, positive control, and the test samples were performed. Data were expressed as mean±SD.
The ability to block HHV-8 infection was examined in human conjunctival epithelial (HCjE) cells, a natural target for HHV-8 infection. Human conjunctival (HCjE) cells were pre-incubated with G1, G2 or control peptide (Cp) were infected with HHV-8 virions for 48 h at 37° C. After incubation the cells were washed thoroughly to remove unbound viruses. GFP-expression of HHV-8 was quantitated by determining relative fluorescence units (RFU) using a 96-well fluorescence reader (TECAN). Emission of fluorescence indicates virus infection. […] This was confirmed by examination of individual cells by fluorescence microscopy.
Viral replication in HCjE cells was visualized under fluorescent microscope (Zeiss Axiovert 100) in cells that were pretreated with G1, G2 or Cp, as described above (FIG. 5D). Asterisks indicate significant difference from controls and/or treatments (P<0.05, t test) and error bars represent SD. […] G1 may have some activity but the virus can possibly overcome it easily.

[2] = tested on: HSV-1 (KOS) gL86; assay: HSV-1 entry into primary human corneal fibroblasts (CF); format: cell-based, herpes simplex virus type-1; conditions: for blocking of HSV-1 entry/infection: human CF, 60 min pre-treatment, 25 pfu/cell, 6 hr
Description: HSV-1 entry was assayed as described in Shukla et al., Cell 99:13-22 (1999). CHO-K1 cells were grown in 6-well plates to subconfluence and then transfected with 2.5 μg of expression plasmids for gD receptors nectin-1 (pBG38), HVEM (pBec10), 3-OST-3 isoform (pDS43), or pCDNA3.1 (empty vector) using LipofectAMINE (Gibco/BRL). At 16 h post-transfection, the cells were replated into 96-well dishes for pre-incubation with peptides at different concentrations for 60 min at room temperature. In parallel, natural target cells (HeLa, CF, and RPE) were also pre-treated with the peptides for the same duration. In all cases, unbound peptides were removed after washing 3× with PBS. Thereafter, cells were infected for 6 h with a recombinant virus, HSV-1 (KOS) gL86, at multiple plaque forming units (PFUs) and β-galactosidase assays were performed using either a soluble substrate o-nitrophenyl-β-D-galactopyranoside (ONPG at 3.0 mg/ml; ImmunoPure, Pierce) or X-gal (Sigma). For the soluble substrate, the enzymatic activity was measured at 410 nm using a micro-plate reader (Spectra Max 190, Molecular Devices, Sunnyvale, Calif.). For the X-gal assay, cells were fixed (2% formaldehyde and 0.2% glutaraldehyde) and permeabilized (2 mM MgCl2, 0.01% deoxycholate, and 0.02% nonidet NP-40 (Sigma)). 1 ml of β-galactosidase reagent (1.0 mg/ml X-gal in ferricyanide buffer) was added to each well and incubated at 37° C. for 90 min before the cells were examined using bright field microscopy under the 20× objectives of the inverted microscope (Zeiss Axiovert 100 M).
The ability of the G1 and G2 peptides to block HSV-1 entry into natural target cells (HeLa and primary cultures of human CF) was compared. A similar dosage response curve was generated when HeLa (FIG. 2A) or CF (FIG. 2B) were pre-treated with G1 or G2 peptides during HSV-1 entry. […] HeLa cells (FIG. 2A) and primary cultures of human corneal fibroblasts (CF) (FIG. 2B) were tested. Cells in 96-well plates were pre-treated for 60 min with indicated mM concentrations of G1, G2, or Cp peptides. Mock-treated cells (abbreviated as C) served as a control. Pretreated cells were infected with a β galactosidase-expressing recombinant virus HSV-1 (KOS) HSV-1 gL86 (25 pfu/cell) for 6 hr. Viral entry was quantitated as described above in reference to FIG. 1. Confirmation of HSV-1 entry blocking activity of G1, G2, and control (Cp) peptides on a per cell basis was obtained after cells were infected as described above followed by X-gal (1.0 mg/ml) staining (Right panels), which yields an insoluble blue product upon hydrolysis by β-galactosidase expressed from the input viral genomes. […] Microscopy was performed using a 20× objective of Zeiss Axiovert 100.
To better understand the inhibitory potential of G1 and G2 peptides, synthetic short variants (10-mer) were synthesized that lacked the terminal non-positively charged amino acids. In case of G1, N-terminus L and C-terminus H residues were removed. For G2, the N-terminus flanking residues (M and P) were removed. Without being bound by theory, it is believed that 12-mer peptides are too short to adopt substantial secondary or tertiary structures and that the primary structure of those peptides, which includes a defined sequence or groupings of positively charged residues, plays a critical role in mediating inhibition of HSV-1 entry. Synthetic 10-mer versions of G1 and G2 (shown above) were tested for blocking HSV-1(KOS)gL86 entry into cultured CF. After 6 h, the viral entry was measured by ONPG assay as described in FIG. 1.
Alanine (A) scanning mutagenesis was performed to identify specific amino acid residues responsible for each peptide's function, stability, and conformation. O'Nuallain et al., Biochemistry 46:13049-13058 (2007). Twelve synthetic peptides were made whereby each residue of G2 was sequentially replaced with an alanine residue and corresponding changes in the G2 peptide were evaluated for their ability to affect viral entry (FIG. 4B). […]

Sequence	GFP-expression of HHV-8 (RFU) [1]	fluorescence from GFP virus replication (microscopy) [1]	blocking of HSV-1 entry/infection [2]	activity normalized against wild-type G2 (higher than 1 = loss of activity) ([2]; alanine scanning, FIG. 4B)
LRSRTKIIRIRH [G1, LRSRTKIIRIRH]	not found to be statistically significant	fluorescence was more easily seen	effective in blocking infection of individual cells	
MPRRRRIRRRQK [G2, MPRRRRIRRRQK]	relatively low GFP-expression	did not show fluorescence	effective in blocking infection of individual cells	1.00
RVCGSIGKEVLG [Cp, reference compound]		fluorescence was more easily seen	no effect on HSV-1 entry	

— patent US9464113B2, “Anti-heparan sulfate peptides that block herpes simplex virus infection in vivo” (The Board of Trustees of the University of Illinois, priority 2010, dated 2016)
